Where no end group is shown, it is not given here.
Columns and labels:
Type in all cases: cell-based, Staphylococcus aureus
[1] = system: S. aureus clinical isolate biofilm-embedded bacteria; assay: CLSM live/dead assay, SYTO 9 / TO-PRO-3 iodide, membrane integrity; conditions: 25 and 50 μM, 4 h in PBS, inner layer z = 2 μm
Method: To visualize the effect of vCPP2319 on membrane integrity of biofilm-embedded bacteria, an adapted live/dead assay using SYTO 9 and TO-PRO-3 iodide (Invitrogen) was performed, as previously described.[24]S. aureus suspensions at 1 × 10^6 CFU/mL were incubated in a sterile μ-Slide 8-well plate (Ibidi) for 24 h at 37 °C. Preformed biofilms were washed once with PBS and incubated with vCPP2319 at 25 or 50 μM, in PBS, for 4 h at 37 °C. Untreated biofilms were used as a control. After a washing step with PBS, biofilms were sequentially stained with 3 μM SYTO 9 for 30 min and 4 μM TO-PRO-3 iodide for 15 min at room temperature.
SYTO 9 was excited using the Argon laser (488 nm), and both TO-PRO-3 iodide and WGA Alexa Fluor 633 were excited with the Helium–Neon laser (633 nm), respectively. […] All images were analyzed with the image processor Fiji.[54] TO-PRO-3 mean fluorescence intensity over the image was quantified from the xy plane of an inner layer (z = 2 μm, z being the distance from the surface of the glass slide) using Fiji’s incorporated plug-ins.[54] WGA mean fluorescence intensity over the image was quantified from the xy plane of an inner layer (z = 2 μm, z being the distance from the surface of the glass slide) and also from a z-projection of the sum of the z-stack slices, using Fiji’s incorporated plug-ins.[54] […]

[2] = system: S. aureus ATCC 6538 biofilms; assay: Colony count assay on 24 h-preformed biofilms; conditions: 25 or 50 μM, 4 h, colony count (Figure 2C)
Method: (§1) The effect of vCPP2319 on 24 h-preformed S. aureus biofilms was evaluated using three distinct methods, as previously described:[24] the metabolic activity and viability of biofilm-embedded cells was determined using a resazurin reduction fluorometric assay and a colony count assay, respectively. The total biofilm biomass was quantified by using a crystal violet assay.
(§2) S. aureus suspensions at 1 × 10^6 CFU/mL were incubated in a sterile 96-well microtiter clear flat-bottomed polystyrene plate (Corning) for 24 h at 37 °C. Nonadherent bacteria were removed after a washing step with MHB, and preformed biofilms were incubated in the absence or presence of vCPP2319 at 25 or 50 μM, for 4 h at 37 °C. Untreated biofilms were used as a control. To evaluate the effect of vCPP2319 redosing on biofilm-embedded bacteria, 24 h-preformed biofilms were incubated in the absence or presence of vCPP2319 at 25 μM, for 4 h at 37 °C. After a washing step with MHB, biofilms were further incubated in the absence or presence of an additional dose of vCPP2319 at 25 or 50 μM, for 4 h at 37 °C. In both experimental settings, after two washing steps with PBS, the biofilms were resuspended in PBS, followed by cell scrapping with a pipet tip as described elsewhere.[49],[50] […] After incubation, the biofilms were removed by cell scrapping with a pipet tip as described elsewhere.[49],[50] In all experimental settings, aliquots were vortexed at high speed, serially diluted in PBS and plated on nutrient-rich trypcase soy agar (TSA) plates (bioMérieux, Marcy l’Etoile, France). After incubation for 24 h at 37 °C, bacterial colonies were counted, and viable bacteria (in CFU/mL) were reported as percentage of the control.

[3] = system: S. aureus clinical isolate biofilms; assay: Colony count assay on 24 h-preformed biofilms; conditions: mean ± SD
Method: as §1, §2

[4] = system: S. aureus ATCC 6538 biofilms; assay: Resazurin reduction fluorometric assay on 24 h-preformed biofilms; conditions: 0.78 to 50 μM, 4 h and 24 h treatment, dose-dependent
Method: as §1
(§3) Resazurin, the active compound in alamarBlue reagent (Invitrogen), is a blue dye that can be reduced to a pink fluorescent intermediate, resorufin, as a result of cells metabolic activity.[48]S. aureus suspensions were prepared to a final concentration of 1 × 10^6 CFU/mL and incubated in a sterile 96-well microtiter black flat-bottomed polystyrene plate (Corning) for 24 h at 37 °C. […] After washing the biofilms twice with MHB, alamarBlue reagent was added at a final concentration 10% (v/v in MHB) to each sample and its reduction was monitored by measuring the fluorescence intensity (excitation and emission wavelengths were 530 and 590 nm, respectively) of the samples every 5 min during 2 h at 37 °C, in an infinite M200 microplate reader (Tecan). […] The percentage of resazurin reduction was determined relatively to the control, after blank (10% (v/v) alamarBlue reagent in MHB) correction.

[5] = system: S. aureus clinical isolate biofilms; assay: as above; conditions: 4 h treatment, only at 25 and 50 μM
Method: as §1, §3

For WRRRYRRWRRRRRWRRRPRR-NH2 [vCPP2319], the “membrane damage, TO-PRO-3 iodide staining” value [1] was “increase of red-stained bacteria”, the “viability of biofilm-embedded cells” value [2] was “decreased bacterial viability” and the “percentage of viable cells” value ([3]; 25 μM for 4 h, then second treatment at 25 μM for 4 h) was 27.6 ± 13.6%. The “percentage of viable cells” value ([3]; 25 μM for 4 h, then second treatment at 50 μM for 4 h) was 9.4 ± 4.7%, the “percentage of viable cells” value ([3]; first treatment 25 μM for 4 h, relative to untreated biofilm) was 44.7 ± 4.3% and the “metabolic activity of biofilm-embedded cells” value [4] was “significant reduction”. For the same substance, the “metabolic activity of biofilm-embedded cells” value [5] was “significantly reduced”.
